Test results reported in PubChem BioAssay (NCI).
Where “and” joins values, the source holds several entries; their conditions need not be identical. Identical values can stand only once.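 In this assay, cells in 96-well plates receive the compound at five concentrations for 48 hours. Endpoints are linearly interpolated between the surrounding concentrations. GI50 is the concentration that inhibits growth by half. TGI: total growth inhibition.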

Assays:
Experiment in all cases: NCI tumour cell line growth inhibition, 48 h
DMS 114 small cell lung = system: DMS 114 small cell lung
DMS 273 small cell lung = system: DMS 273 small cell lung
HOP-18 NSCLC = system: HOP-18 NSCLC
KM20L2 colon = system: KM20L2 colon
LXFL 529 NSCLC = system: LXFL 529 NSCLC
RXF-631 renal = system: RXF-631 renal
SNB-78 CNS = system: SNB-78 CNS
P388 leukemia = system: P388 leukemia
P388/ADR leukemia = system: P388/ADR leukemia
MDA-N = system: MDA-N
XF 498 CNS = system: XF 498 CNS

NC(=O)c1ccc2c(c1)-c1nc-2nc2[n-]c(nc3nc(nc4[n-]c(n1)c1ccc(C(N)=O)cc41)-c1ccc(C(N)=O)cc1-3)c1ccc(C(N)=O)cc21.[Co+2]
GI50 (DMS 114 small cell lung): 19.6 µM
TGI (DMS 114 small cell lung): > 50 µM
GI50 (DMS 273 small cell lung): > 50 µM
TGI (DMS 273 small cell lung): > 50 µM
GI50 (HOP-18 NSCLC): > 50 µM
TGI (HOP-18 NSCLC): > 50 µM
GI50 (KM20L2 colon): > 50 µM
TGI (KM20L2 colon): > 50 µM
GI50 (LXFL 529 NSCLC): 35.9 µM
TGI (LXFL 529 NSCLC): > 50 µM
GI50 (RXF-631 renal): > 50 µM
TGI (RXF-631 renal): > 50 µM
GI50 (SNB-78 CNS): > 50 µM
TGI (SNB-78 CNS): > 50 µM

CC(C)(CN1C(=O)C(Cl)=C(Cl)C1=O)CN1C(=O)C(Cl)=C(Cl)C1=O
TGI (DMS 114 small cell lung): 25.2 µM
TGI (DMS 273 small cell lung): 26.8 µM
TGI (HOP-18 NSCLC): 36.1 µM
TGI (KM20L2 colon): 40 µM
TGI (LXFL 529 NSCLC): 19.7 µM
TGI (SNB-78 CNS): 45.1 µM

O=C(O/N=C1\CCCC\C1=C/c1ccccc1)c1ccc([N+](=O)[O-])cc1
TGI (DMS 114 small cell lung): > 100 µM
TGI (DMS 273 small cell lung): > 100 µM
TGI (HOP-18 NSCLC): > 100 µM
TGI (KM20L2 colon): > 100 µM
TGI (LXFL 529 NSCLC): > 100 µM
TGI (RXF-631 renal): > 100 µM
TGI (SNB-78 CNS): > 100 µM

C[C@H]1CC[P+](Cc2ccccc2)(c2ccccc2)C1 (some centres undefined)
TGI (DMS 114 small cell lung): > 100 µM
TGI (DMS 273 small cell lung): > 100 µM
TGI (HOP-18 NSCLC): > 100 µM
TGI (KM20L2 colon): > 100 µM
TGI (LXFL 529 NSCLC): > 100 µM

O=S1(=O)N2CN3CN(C2)CN1C3
TGI (DMS 114 small cell lung): 55.3 µM
GI50 (DMS 273 small cell lung): 32.8 µM
TGI (DMS 273 small cell lung): > 31.6 µM and 142 µM
GI50 (HOP-18 NSCLC): 24.7 µM
TGI (HOP-18 NSCLC): > 86.4 µM and 91.6 µM
GI50 (KM20L2 colon): 37.1 µM
TGI (KM20L2 colon): 180 µM
TGI (LXFL 529 NSCLC): 34.1 µM
TGI (P388 leukemia): 47.6 µM
TGI (P388/ADR leukemia): 44 µM
TGI (SNB-78 CNS): 118 µM

CC1CC2C3CCC4=CC(=O)C=CC4(C)C3(F)C(O)CC2(C)C1(O)C(=O)COP(=O)(O)O (centres undefined)
TGI (DMS 273 small cell lung): > 100 µM
TGI (HOP-18 NSCLC): > 100 µM
TGI (KM20L2 colon): > 100 µM
TGI (LXFL 529 NSCLC): > 100 µM
TGI (MDA-N): 47.4 µM
TGI (SNB-78 CNS): > 100 µM
TGI (XF 498 CNS): > 100 µM

O=C(c1ccc(O)cc1O)C1C(c2ccc(O)cc2)OC(c2ccc(O)cc2)C1C(=O)c1ccc(O)cc1O (centres undefined)
TGI (DMS 273 small cell lung): 29.5 µM
TGI (KM20L2 colon): > 100 µM
TGI (LXFL 529 NSCLC): 34.7 µM
TGI (SNB-78 CNS): > 100 µM
TGI (XF 498 CNS): 32.3 µM

COC(=O)NC1C(C)OC(OC2C/C=C(/C)C3C=CC4C(OC5CC(OC6CCC(OC7CC(O)C(OC8CCC(O)C(C)O8)C(C)O7)C(C)O6)C(OC(C)=O)C(C)O5)C(C)CC(C)C4C3(C)/C(O)=C3/C(=O)OC4(CC(C=O)=CC(O)C4/C=C\2C)C3=O)CC1(C)[N+](=O)[O-] (centres undefined)
GI50 (DMS 114 small cell lung): 0.19 µM
TGI (DMS 114 small cell lung): 1.76 µM and 0.494 µM
GI50 (DMS 273 small cell lung): 0.414 µM
TGI (DMS 273 small cell lung): 3.73 µM and 3.26 µM
TGI (HOP-18 NSCLC): 14.5 µM and 3.62 µM
GI50 (KM20L2 colon): 0.365 µM
TGI (KM20L2 colon): 3.68 µM and 1.42 µM
TGI (LXFL 529 NSCLC): 1.97 µM
TGI (MDA-N): 3.52 µM
TGI (P388 leukemia): 2.05 µM
TGI (P388/ADR leukemia): 17.3 µM
TGI (RXF-631 renal): 10.8 µM
GI50 (SNB-78 CNS): 0.59 µM
TGI (SNB-78 CNS): 15.4 µM and 26.7 µM
GI50 (XF 498 CNS): 0.385 µM
TGI (XF 498 CNS): 0.5 µM and 2.06 µM

CCCNC(=O)Nc1c([N+](=O)[O-])cc(C(F)(F)F)cc1[N+](=O)[O-]
TGI (DMS 273 small cell lung): > 100 µM
TGI (KM20L2 colon): 61.4 µM
TGI (LXFL 529 NSCLC): > 100 µM
TGI (RXF-631 renal): > 100 µM
TGI (SNB-78 CNS): > 100 µM
TGI (XF 498 CNS): > 100 µM

Cc1ccccc1N=Nc1c(O)ccc2ccccc12
TGI (MDA-N): > 100 µM

Nc1ccc2n[se]nc2c1
TGI (DMS 114 small cell lung): > 100 µM
TGI (DMS 273 small cell lung): > 100 µM
TGI (HOP-18 NSCLC): > 100 µM
TGI (KM20L2 colon): > 100 µM
TGI (LXFL 529 NSCLC): > 100 µM
TGI (RXF-631 renal): > 100 µM
TGI (SNB-78 CNS): > 100 µM
TGI (XF 498 CNS): > 100 µM

Nc1nnc2c(-c3ccccc3)[nH]nc2n1
TGI (DMS 114 small cell lung): > 100 µM
TGI (DMS 273 small cell lung): > 100 µM
TGI (KM20L2 colon): > 100 µM
TGI (LXFL 529 NSCLC): > 100 µM
TGI (SNB-78 CNS): > 100 µM

Cc1ccc(NC(=O)CCc2nc(=S)[nH][nH]2)cc1
TGI (DMS 114 small cell lung): > 100 µM
TGI (DMS 273 small cell lung): > 100 µM
TGI (HOP-18 NSCLC): > 100 µM
TGI (KM20L2 colon): > 100 µM
TGI (LXFL 529 NSCLC): > 100 µM
TGI (RXF-631 renal): > 100 µM
TGI (SNB-78 CNS): > 100 µM
TGI (XF 498 CNS): > 100 µM

COc1ccc(-c2cc(=O)c3c(O)c(OC)c(OC)c(OC)c3o2)cc1OC
TGI (MDA-N): > 100 µM

CC1(C)CCC(Sc2ccccc2)O1 (centres undefined)
TGI (DMS 114 small cell lung): > 100 µM
TGI (DMS 273 small cell lung): > 100 µM
TGI (KM20L2 colon): > 100 µM
TGI (LXFL 529 NSCLC): > 100 µM
TGI (SNB-78 CNS): > 100 µM
TGI (XF 498 CNS): > 100 µM

C=C1C[C@H]2C=Nc3cc(OCCCOc4cc5c(cc4OC)C(=O)N4CC(=C)C[C@H]4C=N5)c(OC)cc3C(=O)N2C1
TGI (MDA-N): 0.0256 µM

CC(C)(C)c1cc(CCC(=O)Nc2ccc(Cl)cc2)[nH]c(=S)n1
TGI (DMS 114 small cell lung): > 100 µM
TGI (DMS 273 small cell lung): > 100 µM
TGI (HOP-18 NSCLC): > 100 µM
TGI (KM20L2 colon): > 100 µM
TGI (LXFL 529 NSCLC): > 100 µM
TGI (RXF-631 renal): > 100 µM
TGI (XF 498 CNS): > 100 µM
